Data published in patent US9642851B2, “Indolinone derivative as tyrosine kinase inhibitor” (KBP Biosciences Co., Ltd., priority 2012, dated 2017).
Counter-ions that a name gives are not always drawn.

How the values were obtained:
[1] = biological target: T1, FGFR1 (Homo sapiens, UniProt P11362); test: In vitro enzymology inhibitory activity (Caliper mobility shift kinase assay); assay type: biochemical; settings: reaction 1 hour at 28° C., FAM-labelled peptide and ATP
T1 construct: purchased Carna
Protocol: (§1) • (1) Preparation of agents and compounds • (1) 1-fold kinase buffer without MnCl2 (50 mM HEPES, pH=7.5, 0.0015% Brij-35, 10 mM MgCl2, 2 mM DTT) • (2) 1-fold kinase buffer with MnCl2 (50 mM HEPES, pH=7.5, 0.0015% Brij-35, 10 mM MgCl2, 10 mM MnCl2, 2 mM DTT); • (3) Termination solution (100 mM HEPES, pH=7.5, 0.015% Brij-35, 0.2% Coating Reagent #3, 50 mM EDTA); • (4) 2.5-fold kinase solution (the VEGFR2, FGFR1, FGFR3, PDGFRβ kinases were added to the 1-fold kinase buffer respectively to prepare the corresponding 2.5-fold kinase solutions); • (5) 2.5-fold substrate solution: FAM-labelled peptide and ATP were added to the 1-fold kinase buffer to prepare a peptide solution; • (6) 4-fold dilution of the compound solution: the compound was accurately weighed, and dissolved in DMSO. The mixture was mixed sufficiently and evenly to prepare a 10 mM solution. Then the solution was diluted with DMSO to 500 μM, and 4-fold serial dilutions were done at 10 concentrations with a highest concentration of 50μM.
(§2) The calculated inhibition ratio (%)=(max. conversion−sample conversion)/(max. conversion−min. conversion)×100
(§3) The curve fitting was done with the software Xlfit to obtain the IC50 value.

[2] = biological target: T2, FGFR3 (Homo sapiens, UniProt P22607); test: as above; assay type: biochemical; settings: reaction 1 hour at 28° C., FAM-labelled peptide and ATP
T2 construct: purchased Carna
Protocol: as §1, §2, §3

[3] = biological target: T3, PDGFRβ (Homo sapiens, UniProt P09619); test: as above; assay type: biochemical; settings: reaction 5 hour at 28° C., FAM-labelled peptide and ATP
T3 construct: purchased BPS
Protocol: as §1, §2, §3

[4] = biological target: T4, VEGFR2 (Homo sapiens, UniProt P35968); test: as above; assay type: biochemical; settings: reaction 1 hour at 28° C., FAM-labelled peptide and ATP
T4 construct: purchased Carna
Protocol: as §1, §2, §3

[5] = test system: HUVEC cells; test: In vitro cellular inhibitory activity, h-VEGF-A stimulated HUVEC proliferation; assay type: cell-based; settings: Homo sapiens, h-VEGF-A 10 ng/ml, incubated for 89 hours, absorbance at 490 nm, read-out: ED50 for the HUVEC in vitro cells
Protocol: (§4) (1) Thawing cells and Passing cells.
(§5) The 3T3 cells were resuspended in a culture medium containing 10% fetal bovine serum, wherein the cell concentration was 5×10^4/ml. The cell suspension was added to a 96-well plate with 100 μL per well, and incubated overnight; the HUVEC cells were resuspended in a culture medium containing 10% heat-inactivated fetal bovine serum, wherein the cell concentration was 7.5×10^4/ml. The cell suspension was added to a 96-well plate with 100 μL per well. • (3) Treating with drugs: the compounds were diluted to different concentrations, and 60 μLh-PDGF-BB (3T3 cells) and 40 ng/ml h-VEGF-A (HUVEC cells) were added and incubated for 1 hour. • (4) 100 μL of a solution containing the compound and h-PDGF-BB (h-VEGF-A, for the HUVEC cells) was added to a cell culture plate, wherein the final concentration of h-PDGF-BB was 10 ng/ml, the final concentration of h-VEGF-A was 10 ng/ml, and the final concentration for the compounds were 10, 3.3333, 1.1111, 0.3704, 0.1235, 0.0412, 0.0137, 0.0046, and 0.0015 μM. The plate was incubated for 40 hours, and the HUVEC cells were incubated for 89 hours. To each well was added 20 μL Promega Substrate, and the plate was incubated at 37° C. for 7.5 hours, and the HUVEC cells were incubated for 11.5 hours. Then the plate was placed in a microplate reader to read the absorbance at 490 nm. • (5) Data processing
(§6) The curve of the compound concentration vs. Net OD was plotted, wherein Net OD=Compound OD−min. OD. ED50 was calculated according to the following equation: Conc. ED50(x)=(y−b)/a, y=Calculated Net OD for IC50, a=slope, b=intercept.

[6] = test system: 3T3 cells; test: In vitro cellular inhibitory activity, h-PDGF-BB stimulated 3T3 proliferation; assay type: cell-based; settings: Mus musculus, NIH3T3; h-PDGF-BB 10 ng/ml, incubated for 40 hours, absorbance at 490 nm; read-out: ED50 for the 3T3 in vitro cells
Protocol: as §4, §5, §6

T3 sequence (P09619 33-1106): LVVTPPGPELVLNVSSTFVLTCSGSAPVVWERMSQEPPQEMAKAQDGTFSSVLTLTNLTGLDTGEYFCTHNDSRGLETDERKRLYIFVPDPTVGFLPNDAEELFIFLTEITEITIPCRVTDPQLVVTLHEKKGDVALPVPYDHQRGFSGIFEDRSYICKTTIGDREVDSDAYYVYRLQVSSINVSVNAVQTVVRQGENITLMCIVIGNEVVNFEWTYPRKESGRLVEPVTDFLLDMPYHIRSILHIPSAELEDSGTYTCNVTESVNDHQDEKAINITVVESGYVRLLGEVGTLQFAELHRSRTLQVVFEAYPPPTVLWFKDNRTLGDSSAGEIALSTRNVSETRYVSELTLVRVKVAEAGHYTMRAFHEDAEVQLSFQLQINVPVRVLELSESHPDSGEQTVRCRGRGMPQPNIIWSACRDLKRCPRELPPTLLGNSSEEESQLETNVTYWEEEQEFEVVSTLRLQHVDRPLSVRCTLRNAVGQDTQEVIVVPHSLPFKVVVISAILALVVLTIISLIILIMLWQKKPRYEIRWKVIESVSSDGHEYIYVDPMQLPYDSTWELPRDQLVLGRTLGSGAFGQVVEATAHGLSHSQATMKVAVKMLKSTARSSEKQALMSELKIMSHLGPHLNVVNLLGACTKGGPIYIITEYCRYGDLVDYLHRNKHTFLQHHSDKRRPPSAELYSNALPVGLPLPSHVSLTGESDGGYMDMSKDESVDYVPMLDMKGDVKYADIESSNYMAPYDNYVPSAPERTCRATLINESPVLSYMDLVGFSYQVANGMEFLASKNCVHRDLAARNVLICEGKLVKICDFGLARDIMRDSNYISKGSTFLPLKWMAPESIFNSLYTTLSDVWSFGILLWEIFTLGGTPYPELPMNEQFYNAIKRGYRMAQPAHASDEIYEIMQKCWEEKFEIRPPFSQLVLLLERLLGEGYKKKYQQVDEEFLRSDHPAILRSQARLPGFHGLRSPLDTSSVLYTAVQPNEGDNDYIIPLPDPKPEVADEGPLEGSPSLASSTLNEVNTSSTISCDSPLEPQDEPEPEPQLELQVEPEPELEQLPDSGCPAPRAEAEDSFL
T4 sequence (P35968 20-1356): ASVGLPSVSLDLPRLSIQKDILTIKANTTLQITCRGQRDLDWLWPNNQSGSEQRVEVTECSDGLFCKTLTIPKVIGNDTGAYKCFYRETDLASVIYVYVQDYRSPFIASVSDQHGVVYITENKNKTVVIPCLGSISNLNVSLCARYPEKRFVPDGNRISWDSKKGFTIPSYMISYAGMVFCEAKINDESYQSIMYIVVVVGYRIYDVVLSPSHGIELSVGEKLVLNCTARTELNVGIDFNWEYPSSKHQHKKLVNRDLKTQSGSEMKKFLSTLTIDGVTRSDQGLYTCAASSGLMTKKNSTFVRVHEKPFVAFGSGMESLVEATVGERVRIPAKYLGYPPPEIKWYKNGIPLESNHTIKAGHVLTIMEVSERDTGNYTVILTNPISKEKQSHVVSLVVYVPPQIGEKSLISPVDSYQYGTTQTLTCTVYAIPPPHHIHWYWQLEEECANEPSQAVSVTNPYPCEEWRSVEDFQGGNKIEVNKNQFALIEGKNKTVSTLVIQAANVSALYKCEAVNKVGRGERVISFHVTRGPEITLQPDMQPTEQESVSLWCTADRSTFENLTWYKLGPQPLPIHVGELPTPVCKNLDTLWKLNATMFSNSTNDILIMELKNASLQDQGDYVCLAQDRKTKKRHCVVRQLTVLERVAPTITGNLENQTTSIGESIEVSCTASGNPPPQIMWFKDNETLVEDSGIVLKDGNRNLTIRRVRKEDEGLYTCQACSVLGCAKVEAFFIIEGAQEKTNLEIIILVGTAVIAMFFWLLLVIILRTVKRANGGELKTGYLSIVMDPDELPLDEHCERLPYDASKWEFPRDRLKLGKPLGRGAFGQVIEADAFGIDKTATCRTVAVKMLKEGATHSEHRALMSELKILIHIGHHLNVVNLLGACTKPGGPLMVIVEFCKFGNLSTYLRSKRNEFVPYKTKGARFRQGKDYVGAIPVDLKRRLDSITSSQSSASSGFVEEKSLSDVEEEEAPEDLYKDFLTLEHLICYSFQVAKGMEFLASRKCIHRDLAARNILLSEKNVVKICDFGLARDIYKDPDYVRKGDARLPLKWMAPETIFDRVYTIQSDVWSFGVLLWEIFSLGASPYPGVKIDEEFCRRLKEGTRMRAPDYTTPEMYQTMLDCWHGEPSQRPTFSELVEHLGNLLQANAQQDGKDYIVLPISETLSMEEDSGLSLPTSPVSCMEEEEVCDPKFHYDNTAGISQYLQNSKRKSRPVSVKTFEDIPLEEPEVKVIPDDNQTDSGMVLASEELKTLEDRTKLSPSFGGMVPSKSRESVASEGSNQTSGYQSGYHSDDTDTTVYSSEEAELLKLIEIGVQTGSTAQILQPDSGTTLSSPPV
T2 sequence (P22607 23-806): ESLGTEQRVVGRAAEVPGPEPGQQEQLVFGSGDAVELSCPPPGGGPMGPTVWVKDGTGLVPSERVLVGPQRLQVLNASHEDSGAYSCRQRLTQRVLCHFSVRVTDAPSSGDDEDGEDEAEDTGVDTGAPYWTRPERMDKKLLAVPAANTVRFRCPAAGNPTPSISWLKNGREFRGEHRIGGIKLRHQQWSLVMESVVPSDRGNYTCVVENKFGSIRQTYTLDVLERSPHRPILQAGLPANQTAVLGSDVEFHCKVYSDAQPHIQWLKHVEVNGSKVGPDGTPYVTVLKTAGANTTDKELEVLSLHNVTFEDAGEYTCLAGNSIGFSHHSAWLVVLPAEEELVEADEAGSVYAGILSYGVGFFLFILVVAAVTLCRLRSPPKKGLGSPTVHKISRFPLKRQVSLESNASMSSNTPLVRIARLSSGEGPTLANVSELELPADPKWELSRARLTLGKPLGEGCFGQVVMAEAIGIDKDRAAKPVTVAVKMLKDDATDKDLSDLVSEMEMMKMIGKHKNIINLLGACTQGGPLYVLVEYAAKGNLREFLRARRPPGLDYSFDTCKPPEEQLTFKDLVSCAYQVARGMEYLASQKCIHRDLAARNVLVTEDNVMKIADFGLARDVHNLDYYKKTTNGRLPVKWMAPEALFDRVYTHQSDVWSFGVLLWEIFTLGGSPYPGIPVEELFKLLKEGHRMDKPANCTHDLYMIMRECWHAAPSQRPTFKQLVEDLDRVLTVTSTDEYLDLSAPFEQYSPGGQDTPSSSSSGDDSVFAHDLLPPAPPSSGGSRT
T1 sequence (P11362 22-822): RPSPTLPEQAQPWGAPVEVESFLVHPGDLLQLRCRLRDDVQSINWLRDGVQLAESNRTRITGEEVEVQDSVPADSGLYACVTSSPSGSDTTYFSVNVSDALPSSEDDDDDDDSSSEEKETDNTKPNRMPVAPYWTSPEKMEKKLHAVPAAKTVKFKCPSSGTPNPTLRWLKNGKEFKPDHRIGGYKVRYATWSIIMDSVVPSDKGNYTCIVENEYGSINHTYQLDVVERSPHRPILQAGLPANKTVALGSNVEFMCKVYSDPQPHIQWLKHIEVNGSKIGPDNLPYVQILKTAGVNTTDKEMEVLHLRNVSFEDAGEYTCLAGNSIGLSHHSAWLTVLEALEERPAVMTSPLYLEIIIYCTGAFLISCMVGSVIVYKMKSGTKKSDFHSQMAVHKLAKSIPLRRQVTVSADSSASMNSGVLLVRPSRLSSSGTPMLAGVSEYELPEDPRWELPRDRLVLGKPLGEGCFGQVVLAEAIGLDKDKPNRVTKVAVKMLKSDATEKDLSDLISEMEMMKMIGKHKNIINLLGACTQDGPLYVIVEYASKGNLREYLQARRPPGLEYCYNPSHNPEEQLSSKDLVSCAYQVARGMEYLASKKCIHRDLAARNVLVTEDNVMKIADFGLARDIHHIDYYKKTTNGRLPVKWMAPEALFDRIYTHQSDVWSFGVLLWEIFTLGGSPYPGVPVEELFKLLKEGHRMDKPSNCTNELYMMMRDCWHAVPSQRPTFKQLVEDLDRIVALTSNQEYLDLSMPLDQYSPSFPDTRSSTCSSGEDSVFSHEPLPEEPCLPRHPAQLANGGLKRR

Row | IC50 [1] [µM] | IC50 [2] [µM] | IC50 [3] [µM] | IC50 [4] [µM] | SMILES | EC50 [5] [µM] | EC50 [6] [µM]
1 | 0.1 | 0.23 | 0.0076 | 0.017 | COC(=O)c1ccc2c(c1)NC(=O)/C2=C(\Nc1ccc2c(c1)CCN2C(=O)CN1CCN(C)CC1)c1ccccc1 [Compound 1] | 0.056 to 0.084 | 0.06 to 0.08
2 |  | 9.8 | 0.085 | 0.77 | COC(=O)c1ccc2c(c1)NC(=O)/C2=C(\Nc1ccc2c(c1)CCN2C(=O)CN1CCOCC1)c1ccc(F)cc1 [Compound 9 hydrochloride, methyl(Z)-3-((4-fluorophenyl)(1-(2-morpholinylacetyl)indolin-5-ylamino)methylene)-2-oxoindoline-6-carboxylate] | 0.13 to 0.19 | 
3 | 7.96 | 5.3 | 0.065 | 0.63 | CCOC(=O)c1ccc2c(c1)NC(=O)/C2=C(\Nc1ccc2c(c1)CCN2C(=O)CN1CCOCC1)c1ccccc1 [Compound 10 hydrochloride, ethyl(Z)-3-((1-(2-morpholinylacetyl)indolin-5-ylamino)(phenyl)methylene)-2-oxoindoline-6-carboxylate] | 0.09 to 0.14 | 
